From article PMC6695453, “Peptide translocation by the lysosomal ABC transporter TAPL is regulated by coupling efficiency and activation energy” (Scientific Reports, 2019)

Columns and labels:
P-gp = details: cited from earlier work
Excerpt: Other ABC transporters like P-glycoprotein have a biphasic substrate dependent ATPase activity. […] Basal ATPase activity of MRP1 is 3-fold stimulated by its substrate leucotriene C4, which forms contacts to both halfs o ...

TAPL = molecular target: T1, TAPL (Homo sapiens, UniProt Q9NP78); details: GTP vs ATP; cited from earlier work
T1 construct: Human coreTAPL (Q9NP78 UniProt, amino acid 143–766) fused C-terminally to mVenus; made in house; host or cells: Pichia pastoris SMD1168-His+
T1 sequence (Q9NP78 143-766): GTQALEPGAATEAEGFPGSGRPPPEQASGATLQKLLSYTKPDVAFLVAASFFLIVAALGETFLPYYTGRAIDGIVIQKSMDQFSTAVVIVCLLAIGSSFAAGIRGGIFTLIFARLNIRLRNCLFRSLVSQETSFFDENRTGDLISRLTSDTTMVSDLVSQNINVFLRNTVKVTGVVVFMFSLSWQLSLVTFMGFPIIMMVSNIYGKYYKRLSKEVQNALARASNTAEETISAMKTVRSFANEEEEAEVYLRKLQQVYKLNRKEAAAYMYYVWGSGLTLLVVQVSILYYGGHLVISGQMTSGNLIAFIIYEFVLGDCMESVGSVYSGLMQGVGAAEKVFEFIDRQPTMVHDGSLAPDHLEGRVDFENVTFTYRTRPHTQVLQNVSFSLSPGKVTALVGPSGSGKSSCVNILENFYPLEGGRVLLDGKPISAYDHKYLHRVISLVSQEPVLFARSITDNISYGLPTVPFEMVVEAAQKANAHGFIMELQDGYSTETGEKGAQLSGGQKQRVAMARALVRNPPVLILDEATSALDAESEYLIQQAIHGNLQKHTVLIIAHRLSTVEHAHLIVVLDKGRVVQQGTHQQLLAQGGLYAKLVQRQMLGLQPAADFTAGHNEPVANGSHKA
Excerpt: To decipher the coupling between nucleotide hydrolysis and peptide transport, we intended to reduce futile hydrolysis cycles without translocating peptides. Assuming a kinetic effect where ATP binding and subsequent ATP hydrolysis is much faster than peptide binding, a more stoichiometric coupling should be obtained with decreasing ATP concentrations. Therefore, we determined Michaelis-Menten kinetics of nucleotide hydrolysis and peptide transport with decreasing nucleotide concentrations. For sensitivity reasons, we switched from the colorimetric malachite green based assay to a radioactive b ...

PatA/PatB = details: transport and NTP hydrolysis, 37 °C; cited from earlier work
Excerpt: Both nucleotides show the same Km and kcat values in respect of NTP hydrolysis. […] NTP dependent transport was found also for other ABC transporters. […] The full-length ABC transport Pdr5 from yeast hydrolyzes GTP and even UTP, but ...

TmrAB = TmrAB (Thermus thermophilus, UniProt Q72J04+Q72J05); experiment: NTP dependent peptide transport by TmrAB; details: 68 °C, 9-mer^FL peptide

SMILES	effect on P-gp transport and ATP hydrolysis (in words) (P-gp)	fuelling of peptide transport vs ATP (in words) (TAPL)	nucleotide preference of PatA/PatB (in words) (PatA/PatB)	fold decreased transport rate for GTP compared to ATP, TmrAB (TmrAB) [fold]
O[C@@H](COc1cccc2ncccc12)CN1CCN([C@@H]2c3ccccc3[C@@H]3[C@H](c4ccccc42)C3(F)F)CC1 [Zosuquidar]	inhibits transport but stimulates ATP hydrolysis			
Nc1nc2c(ncn2[C@@H]2O[C@H](COP(=O)(O)OP(=O)(O)OP(=O)(O)O)[C@@H](O)[C@H]2O)c(=O)[nH]1 [GTP]		to a lower extend than ATP	strongly prefers GTP over ATP	6
